Assay [1] concerns MDA-MB-231. Kind of assay: MTT antiproliferative assay, MDA-MB-231. The settings on record: MTT, 48 h, mean of three experiments ± SD. The format is cell-based, human. For orientation: Formazan colour is commonly taken as a measure of viable cells.
Experimental: (§1) The in vitro antiproliferative activity of the novel EP derivatives (1a–h, 2a–h, 3a–h, and 4a–h) was evaluated on four different human cancer cell lines (A549, HepG2, MCF-7, and MDA-MB-231) using an MTT assay.
(§2) Cells containing 10% fetal bovine serum (FBS; WISENT, Nanjing, China) were cultured in an L-15 culture medium (L-15, BOSTER, Wuhan, China) in an incubator at 37 °C. The cells were then inoculated into 96-well plates at a density of 5 × 10^3/well, cultured in 100 μL L-15 medium for 24 h, and incubated with the compound to be tested for 48 h. Next, 20 μL of MTT (5 mg/mL) solution was added and incubated at 37 °C for 4 h away from light. A resorption culture medium was then supplemented with 150 μL DMSO per well. The absorbance was measured at 570 nm using an enzymometer (SAFIRE2, Tecan, Swiss Confederation, Männedorf, Switzerland). The cytotoxic activity was presented in terms of half the inhibition rate.
In assay [2] the test system is MCF-7. Kind of assay: MTT antiproliferative assay, MCF-7. The settings on record: mean of three experiments ± SD. Format: cell-based, human.
Experimental: as §1, §2
The subject of assay [3] is HepG2. Kind of assay: MTT antiproliferative assay, HepG2. The format is cell-based, human. The settings on record: mean of three experiments ± SD.
Experimental: as §1, §2
Assay [4] deals with A549. Kind of assay: MTT antiproliferative assay, A549. Format: cell-based, human. The settings on record: mean of three experiments ± SD.
Experimental: as §1, §2
Assay [5] has as its target T1, human GLS1 (Homo sapiens, UniProt O94925).
T1 sequence (O94925 55-669): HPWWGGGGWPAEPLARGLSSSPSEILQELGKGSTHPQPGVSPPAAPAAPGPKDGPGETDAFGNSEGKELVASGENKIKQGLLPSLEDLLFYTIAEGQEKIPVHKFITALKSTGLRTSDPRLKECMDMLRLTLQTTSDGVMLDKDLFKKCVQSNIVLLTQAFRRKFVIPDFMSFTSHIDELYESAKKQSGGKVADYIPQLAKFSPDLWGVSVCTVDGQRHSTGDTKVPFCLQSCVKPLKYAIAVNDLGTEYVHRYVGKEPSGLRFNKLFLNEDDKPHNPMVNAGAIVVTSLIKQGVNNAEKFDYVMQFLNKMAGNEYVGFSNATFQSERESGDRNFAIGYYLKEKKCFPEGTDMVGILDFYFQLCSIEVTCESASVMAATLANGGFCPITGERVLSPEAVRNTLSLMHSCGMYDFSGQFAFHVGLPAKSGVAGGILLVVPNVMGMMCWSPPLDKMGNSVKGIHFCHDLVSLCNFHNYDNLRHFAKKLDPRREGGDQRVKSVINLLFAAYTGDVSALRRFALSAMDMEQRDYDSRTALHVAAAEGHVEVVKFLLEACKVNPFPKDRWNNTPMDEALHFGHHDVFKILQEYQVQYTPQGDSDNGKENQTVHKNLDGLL
Kind of assay: GLS1 inhibitor screening kit in MDA-MB-231 cells. The format is cell-based. The settings on record: 48 h, read-out: GLS1 inhibition IC50. How it is done: The GLS1 inhibitory activity of compound 3g in MDA-MB-231 cells was evaluated using a GLS1 inhibitor screening kit.
MDA-MB-231 cells were cultured for 24 h and then incubated with different concentrations of 3g or 0.1%DMSO for 48 h and washed with PBS 1–2 times. The cells were then collected, subjected to ultrasound in an ice bath for 5 min, and centrifuged at 4 °C and 1200 g for 15 min. Next, the GLS1 activity in human GLS1 was evaluated according to the manufacturer’s guidelines using a GLS1 screening kit (Sangon Biotech #D799306, Shanghai, China) in a 96-well plate (Corning # 351172, New York, NY, USA).

Broadly, the IC50 is the midpoint of a concentration-inhibition curve. In the case of `CC(C)C(C)C=CC(C)C1CCC2C1(C)CCC1C23C=CC2(CC(OC(=O)CCCC(=O)Nc4ccccc4)CCC12C)OO3` (centres unmarked) [Compound 3e, Ergosterol peroxide-3-(5-oxo-5-(phenylamino)pentanoate)], the IC50 in assay [1] (Homo sapiens, MDA-MB-231) amounted to 4.78 ± 0.41 µM; in assay [2] (Homo sapiens, MCF7, 48 h), 11.6 ± 0.66 µM; in assay [3] (Homo sapiens, HepG2, 48 h) it was 14.9 ± 1.13 µM; in assay [4] (Homo sapiens, A549, 48 h), 10.5 ± 0.79 µM.

`CC(C)C(C)C=CC(C)C1CCC2C1(C)CCC1C23C=CC2(CC(OC(=O)c4ccccc4C(=O)Nc4nccs4)CCC12C)OO3` (centres unmarked) [Compound 4b, Ergosterol peroxide-3-(2-oxo-5-((thiazol-2-yl)carbamoyl)benzoate)]: the IC50 in assay [1] (Homo sapiens, MDA-MB-231) worked out at 15.8 ± 1.26 µM; in assay [2] (Homo sapiens, MCF7, 48 h) it was 12.6 ± 0.94 µM; in assay [3] (Homo sapiens, HepG2, 48 h), 11 ± 0.76 µM; in assay [4] (Homo sapiens, A549, 48 h), 12.8 ± 1.08 µM.

As for `CC(C)[C@@H](C)/C=C/[C@@H](C)[C@H]1CC[C@@H]2[C@]1(C)CC[C@H]1[C@]23C=C[C@]2(C[C@@H](O)CC[C@]12C)OO3` [EP, Ergosterol peroxide], the IC50 in assay [1] (Homo sapiens, MDA-MB-231) was 17.3 ± 1.05 µM; in assay [5], 33.7 µM; in assay [2] (Homo sapiens, MCF7, 48 h), 19.4 ± 1.5 µM; in assay [3] (Homo sapiens, HepG2, 48 h), 18.1 ± 1.71 µM; in assay [4] (Homo sapiens, A549, 48 h), 15 ± 1.27 µM.

In the case of `CC(C)C(C)C=CC(C)C1CCC2C1(C)CCC1C23C=CC2(CC(OC(=O)c4ccccc4C(=O)Nc4ccc(F)cc4)CCC12C)OO3` (centres unmarked) [Compound 4f, Ergosterol peroxide-3-(2-((4-fluorophenyl)carbamoyl)benzoate)], the IC50 in assay [1] (Homo sapiens, MDA-MB-231) was determined as 13.4 ± 1.24 µM; in assay [2] (Homo sapiens, MCF7, 48 h), 9.64 ± 0.51 µM; in assay [3] (Homo sapiens, HepG2, 48 h) it was 9.02 ± 0.87 µM; in assay [4] (Homo sapiens, A549, 48 h), 18.8 ± 0.64 µM.

For the molecule `CC(C)C(C)C=CC(C)C1CCC2C1(C)CCC1C23C=CC2(CC(OC(=O)c4ccccc4C(=O)Nc4nncs4)CCC12C)OO3` (centres unmarked) [Compound 4a, Ergosterol peroxide-3-(2-((1,3,4-thiadiazol-2-yl)carbamoyl)benzoate)], the half-maximal inhibitory concentration (IC50) in assay [1] (Homo sapiens, MDA-MB-231) is 10.2 ± 0.62 µM; in assay [2] (Homo sapiens, MCF7, 48 h) it was 8.2 ± 0.68 µM; in assay [3] (Homo sapiens, HepG2, 48 h), 8.08 ± 0.64 µM; in assay [4] (Homo sapiens, A549, 48 h) it was 7.07 ± 0.47 µM.

On to `CC(C)C(C)C=CC(C)C1CCC2C1(C)CCC1C23C=CC2(CC(OC(=O)CCCC(=O)Nc4nncs4)CCC12C)OO3` (centres unmarked) [Compound 3a, Ergosterol peroxide-3-(5-((1,3,4-thiadiazol-2-yl)amino)-5-oxopentanoate)], for which the IC50 turned out to be 7.06 ± 0.35 µM in assay [1] (Homo sapiens, MDA-MB-231); 5.16 ± 0.93 µM in assay [2] (Homo sapiens, MCF7, 48 h); 10.7 ± 0.82 µM in assay [3] (Homo sapiens, HepG2, 48 h); 9.73 ± 0.42 µM in assay [4] (Homo sapiens, A549, 48 h).

In the case of `CC(C)C(C)C=CC(C)C1CCC2C1(C)CCC1C23C=CC2(CC(OC(=O)CCCC(=O)Nc4nccs4)CCC12C)OO3` (centres unmarked) [Compound 3b, Ergosterol peroxide-3-(5-oxo-5-(thiazol-2-ylamino)pentanoate)], the IC50 in assay [1] (Homo sapiens, MDA-MB-231) worked out at 6.92 ± 0.28 µM; in assay [2] (Homo sapiens, MCF7, 48 h) it was 9.47 ± 0.75 µM; in assay [3] (Homo sapiens, HepG2, 48 h), 13.1 ± 1.22 µM; in assay [4] (Homo sapiens, A549, 48 h) it was 11.7 ± 0.82 µM.

For `O=C(Cc1ccccc1)Nc1nnc(CCSCCc2nnc(NC(=O)Cc3ccccc3)s2)s1` [BPTES, reference compound], the IC50 in assay [1] (Homo sapiens, MDA-MB-231) came to 9.1 ± 0.26 µM; in assay [2] (Homo sapiens, MCF7, 48 h), 21.3 ± 6.89 µM; in assay [3] (Homo sapiens, HepG2, 48 h), 60.2 ± 8.35 µM; in assay [4] (Homo sapiens, A549, 48 h), 49.1 ± 11.6 µM.

Consider `CC(C)C(C)C=CC(C)C1CCC2C1(C)CCC1C23C=CC2(CC(OC(=O)CCCC(=O)Nc4ccc(F)cc4)CCC12C)OO3` (centres unmarked) [Compound 3f, Ergosterol peroxide-3-(5-((4-fluorophenyl)amino)-5-oxopentanoate)], for which the IC50 in assay [1] (Homo sapiens, MDA-MB-231) amounted to 7.19 ± 0.39 µM; in assay [2] (Homo sapiens, MCF7, 48 h), 8.09 ± 0.71 µM; in assay [3] (Homo sapiens, HepG2, 48 h), 9.79 ± 1.01 µM; in assay [4] (Homo sapiens, A549, 48 h), 11.1 ± 0.93 µM.

Consider `CC(C)C(C)C=CC(C)C1CCC2C1(C)CCC1C23C=CC2(CC(OC(=O)c4ccccc4C(=O)Nc4nc5ccc(F)cc5s4)CCC12C)OO3` (centres unmarked) [Compound 4d, Ergosterol peroxide-3-(2-((6-fluorobenzo[d]thiazol-2-yl)carbamoyl)benzoate)], for which the IC50 in assay [1] (Homo sapiens, MDA-MB-231) was 11.3 ± 0.44 µM; in assay [2] (Homo sapiens, MCF7, 48 h), 10.6 ± 0.52 µM; in assay [3] (Homo sapiens, HepG2, 48 h), 15.3 ± 1.31 µM; in assay [4] (Homo sapiens, A549, 48 h) it was 8.99 ± 0.81 µM.

As for `CC(C)C(C)C=CC(C)C1CCC2C1(C)CCC1C23C=CC2(CC(OC(=O)CCCC(=O)Nc4ccc5ccccc5c4)CCC12C)OO3` (centres unmarked) [Compound 3h, Ergosterol peroxide-3-(5-(naphthalen-2-ylamino)-5-oxopentanoate)], the IC50 in assay [1] (Homo sapiens, MDA-MB-231) turned out to be 4.98 ± 0.84 µM; in assay [2] (Homo sapiens, MCF7, 48 h), 8.65 ± 0.73 µM; in assay [3] (Homo sapiens, HepG2, 48 h) it was 13.8 ± 1.3 µM; in assay [4] (Homo sapiens, A549, 48 h), 9.3 ± 0.66 µM.

As for `CC(C)C(C)C=CC(C)C1CCC2C1(C)CCC1C23C=CC2(CC(OC(=O)CCCC(=O)Nc4nc5cc(F)ccc5s4)CCC12C)OO3` (centres unmarked) [Compound 3c, Ergosterol peroxide-3-(5-((5-fluorobenzo[d]thiazol-2-yl)amino)-5-oxopentanoate)], the IC50 in assay [1] (Homo sapiens, MDA-MB-231) was 12 ± 0.72 µM; in assay [2] (Homo sapiens, MCF7, 48 h), 11 ± 0.62 µM; in assay [3] (Homo sapiens, HepG2, 48 h), 11.9 ± 1.07 µM; in assay [4] (Homo sapiens, A549, 48 h), 11.4 ± 0.79 µM.

Regarding `N.N.[Cl][Pt][Cl]` [Cisplatin, reference compound], the IC50 amounted to 10.4 ± 0.34 µM in assay [1], 4.23 ± 0.24 µM in assay [2] (48 h), 6.29 ± 0.3 µM in assay [3] (48 h) and 11.6 ± 0.38 µM in assay [4] (48 h).

On to `CC(C)C(C)C=CC(C)C1CCC2C1(C)CCC1C23C=CC2(CC(OC(=O)c4ccccc4C(=O)Nc4nc5cc(F)ccc5s4)CCC12C)OO3` (centres unmarked) [Compound 4c, Ergosterol peroxide-3-(2-((5-fluorobenzo[d]thiazol-2-yl)carbamoyl)benzoate)], for which the IC50 in assay [1] (Homo sapiens, MDA-MB-231) came to 7.32 ± 0.58 µM; in assay [2] (Homo sapiens, MCF7, 48 h) it was 10.7 ± 0.47 µM; in assay [3] (Homo sapiens, HepG2, 48 h), 11.4 ± 0.98 µM; in assay [4] (Homo sapiens, A549, 48 h) it was 11.7 ± 1.02 µM.

`CC(C)C(C)C=CC(C)C1CCC2C1(C)CCC1C23C=CC2(CC(OC(=O)CCCC(=O)Nc4nc5ccc(F)cc5s4)CCC12C)OO3` (centres unmarked) [Compound 3d, Ergosterol peroxide-3-(5-((6-fluorobenzo[d]thiazol-2-yl)amino)-5-oxopentanoate)]: the IC50 in assay [1] (Homo sapiens, MDA-MB-231) stood at 10.8 ± 0.53 µM; in assay [2] (Homo sapiens, MCF7, 48 h) it was 8.39 ± 0.34 µM; in assay [3] (Homo sapiens, HepG2, 48 h) it was 14.7 ± 0.35 µM; in assay [4] (Homo sapiens, A549, 48 h) it was 9.09 ± 0.64 µM.

As to `CC(C)C(C)C=CC(C)C1CCC2C1(C)CCC1C23C=CC2(CC(OC(=O)c4ccccc4C(=O)Nc4ccc5ccccc5c4)CCC12C)OO3` (centres unmarked) [Compound 4h, Ergosterol peroxide-3-(2-(naphthalen-2-ylcarbamoyl)benzoate)], the IC50 was found to be 14.6 ± 0.47 µM in assay [1] (Homo sapiens, MDA-MB-231); 11.4 ± 0.42 µM in assay [2] (Homo sapiens, MCF7, 48 h); 14.3 ± 1.55 µM in assay [3] (Homo sapiens, HepG2, 48 h); 10.1 ± 1.16 µM in assay [4] (Homo sapiens, A549, 48 h).

These data come from paper PMC11434480, “Discovery and Optimization of Ergosterol Peroxide Derivatives as Novel Glutaminase 1 Inhibitors for the Treatment of Triple-Negative Breast Cancer” (Molecules, 2024).
